Test [1] deals with xenografted COLO205 cells. The test can be described thus: Mouse model of CRC using xenografted COLO205 cells. Format: in vivo. The settings on record: first study; 1H5 30 mg/kg i.p. biweekly, irinotecan 20 mg/kg i.p. once a week. As for the experimental part:
For the mouse model, COLO205 cells were grown in monolayer culture, harvested by trypsinization, and implanted subcutaneously into the right flank of 6- to 8-week-old female athymic nude mice. Approximately 10 million cells were injected per mouse. Mice were randomized into 4 groups (each n=4).
Tumor volume was determined by external caliper and calculated by the modified ellipsoidal formula: V=½(Length×Width^2). Antitumor efficacy was calculated as (1-dT/dC)[…], where dT is the final tumor volume minus the starting tumor volume from the treatment group, and dC is the final tumor volume minus the starting tumor volume of the control group (Rios-Doria et al., 2015). Error bars were calculated as SEM. The mouse body weight and general health were monitored daily.
In a second study, 1H5 at two different doses was used in the mouse model. For the mouse model, approximately five million cells were implanted (subcutaneous with Matrigel) into 6- to 8-week-old female athymic nude mice. Mice were randomized into 3 groups (each n=5).

The target in another test is T1, human ADAM10 ECD (Homo sapiens, UniProt O14672).
T1 construct: Human ADAM10 ECD (20-650); Fc-tag (human); made in house; host or cells: baculovirus-infected Hi5 insect cells
T1 sequence (O14672 20-650): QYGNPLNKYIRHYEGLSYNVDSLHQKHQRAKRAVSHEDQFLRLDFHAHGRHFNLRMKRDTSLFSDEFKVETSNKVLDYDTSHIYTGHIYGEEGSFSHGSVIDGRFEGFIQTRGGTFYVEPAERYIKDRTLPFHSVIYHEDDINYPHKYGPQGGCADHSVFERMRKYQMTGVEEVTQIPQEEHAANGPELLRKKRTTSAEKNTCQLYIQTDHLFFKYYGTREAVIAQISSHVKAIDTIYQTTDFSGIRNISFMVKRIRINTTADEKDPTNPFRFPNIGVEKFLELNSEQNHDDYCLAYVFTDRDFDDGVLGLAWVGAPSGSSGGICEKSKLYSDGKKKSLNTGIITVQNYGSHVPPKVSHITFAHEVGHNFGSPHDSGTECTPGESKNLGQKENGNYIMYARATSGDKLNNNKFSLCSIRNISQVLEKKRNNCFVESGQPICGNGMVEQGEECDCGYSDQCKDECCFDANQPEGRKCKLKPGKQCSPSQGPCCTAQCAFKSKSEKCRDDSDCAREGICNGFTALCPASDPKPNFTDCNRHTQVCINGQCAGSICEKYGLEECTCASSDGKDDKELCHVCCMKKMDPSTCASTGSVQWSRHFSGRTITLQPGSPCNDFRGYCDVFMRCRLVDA
Nature of the test: Fluorogenic peptide cleavage assay, human ADAM10 ECD. Format: biochemical. Conditions: 1:1 molar ratio; human or bovine ADAM10 ECD not told apart. The procedure:
ADAM10 ECD-antibody or ADAM10 ECD-inhibitor (broad spectrum metalloprotease inhibitor GM6001) complexes were formed at a 1:1 molar ratio prior to the assay. The assay was carried out by mixing 50 μM of a fluorogenic peptide substrate Mca-PLAQAV-Dpa with ADAM10-antibody/inhibitor complexes at 37° C., and monitoring the progress of the enzymatic reaction by fluorescence emission (excitation 320 nm and emission 405 nm) over a time course of 1 hour using a SpectraMax M5. ADAM10 ECD (bovine or human) alone was used as positive control. The substrate peptide was derived from TNFalpha and contains a highly fluorescent 7-methoxycoumarin group and a quencher group, 2,4-dinitrophenyl. ADAM10 cleaves the amide bond between the fluorescent and the quencher group causing an increase in fluorescence (Seegar et al., 2017; Black & Becherer, 1998).

Results on two molecules are retold here after patent publication US20260167677A1, “ANTI-ADAM10 ANTIBODIES AND USES IN TREATMENT OF CANCER” (Memorial Sloan Kettering Cancer Center, priority 2022, published 2026).

Each structure is given as a SMILES string.

In test [1], `CCc1c2c(nc3ccc(OC(=O)N4CCC(N5CCCCC5)CC4)cc13)-c1cc3c(c(=O)n1C2)COC(=O)[C@]3(O)CC` [Irinotecan, irinotecan, reference compound] gave a tumor growth inhibition of 48%.

Take `CNC(=O)[C@H](Cc1c[nH]c2ccccc12)NC(=O)[C@@H](CC(=O)NO)CC(C)C` [broad-spectrum inhibitor, GM6001, reference compound]: the “effect on substrate cleavage” value on human ADAM10 ECD is given as “marginal inhibition”.
